Test results as given in US20060029548A1, “Methods of diagnosing, monitoring and treating pulmonary diseases” (priority 2004, published 2006).
“And” between values parts separate entries of the source, which are not always exact repeats. Equal entries are not always repeated.

Key:
[1] = tested on: pulmonary vagal afferent C fibers (P2X3/P2X2/3-receptors); assay: Perfused nerve-lung preparation: action potentials in C fibers; format: cell-based, guinea pig; conditions: C fibers, 30 min, α,βmATP 10 uM 1 ml bolus
Experimental: (§1) The method for the extracellular recording of the activity of vagal sensory neurons projecting to guinea pig lungs -has been described in detail previously in Canning et al. [(2004) J. Physiol. 557:543-545], which is incorporated herein by reference in its entirety. Briefly, male Hartley guinea pigs (100-200 g) were killed with CO2 inhalation and exsanguination. The blood from the pulmonary circulation was washed out by in situ perfusion with Krebs' bicarbonate solution (KBS; comprised of 118 mM NaCl, 5.4 mM KCl, 1.0 mM NaH2PO4, 1.2 mM MgSO4, 1.9 mM CaCl2, 25.0 mM NaHCO3, 11.1 mM dextrose, and gassed with 95% O2-5% CO2 at pH7.4). The KBS contained 3 uM indomethacin to reduce the indirect influence of tissue prostanoids on sensory fiber activity. Trachea and right lungs, having intact right-side extrinsic vagal innervation by the inclusion, e.g., of right jugular and nodose ganglia, were dissected from the exsanguinated guinea pigs and placed in a two-compartment tissue bath. The right nodose and jugular ganglia, along with the rostral vagus nerve, were placed into one compartment of the tissue bath whereas the lung and trachea were placed into the second compartment of the tissue bath. The two compartments were separately superfused with KBS (6 ml min^−1, at 37° C.).
(§2) The pulmonary artery and trachea were cannulated with polyethylene (PE) tubing and continuously perfused with KBS (4 ml min^−1 and 2 ml min^−1, respectively). […]
(§3) Once a mechanosensitive receptive field was identified, a brief [<1 millisecond (ms)] electrical stimulus was delivered by a small concentric electrode that was positioned over a discrete region of the mechanosensitive receptive field to determine the conduction velocity of the fiber. […] Conduction velocity was calculated by dividing the distance along the nerve pathway by the time between the shock artifact and the action potential evoked by electrical stimulation of the mechanosensitive receptive field. […]

[2] = tested on: pulmonary vagal afferent A fibers (P2X3/P2X2/3-receptors); assay: Perfused nerve-lung preparation: action potentials in A fibers; format: cell-based, guinea pig; conditions: A fibers, 30 min, α,βmATP 10 uM 1 ml bolus
Experimental: as §1, §2, §3

[3] = tested on: human subjects (airway responsiveness, FEV1); assay: Inhalation challenge test: airway responsiveness measured as change in FEV1 (PD20); format: in vivo; conditions: for PD20 geometric mean: non-responders excluded; for PD20: individual subjects
Excerpt: (§4) The clinical study described in Examples 2-4 was randomized, double blind, crossover, and controlled. Each subject attended the laboratory on three occasions. Procedures on the initial screening visit included obtaining information about the study and a number of investigations in the following order: medical history, lung function, reversibility and skin prick testing. At visit 2 and 3, separated by 2-7 days, the subjects were subjected to either an ATP or AMP challenge in a randomized fashion such that, by the end of the study, each patient had been tested with both compounds. Before, immediately after, and 30 minutes after the challenge, lung function and Borg score for dyspnoea were determined, and symptoms other than dyspnoea were recorded.
In the clinical study described in Examples 2-4, spirometric tests were performed using a dry spirometer (Vitalograph Ltd., Buckingham, England) and the best value of the three expiratory manoeuvers was expressed as liters and percentage of the predicted.
(§5) For the tests described in Examples 2-4, ATP and AMP (Sigma, Gillingham, Dorset, England) were dissolved freshly in normal saline solution to produce a range of doubling concentrations from 0.227-929 umol/ml for ATP and from 0.138-1152 umol/ml for AMP and immediately used for bronchial challenge. The solutions were administered using a breath-activated dosimeter (Mefar, Bovezzo, Italy) with an output of 10 ul per inhalation [Prieto et al. (2003) Chest 123:993-997]. The subjects, while wearing a nose clip, inhaled (via a mouthpiece) five breaths of normal saline, followed by sequential doubling concentrations of either ATP or AMP from functional residual capacity to total lung capacity. FEV1 was measured from two minutes after the fifth inhalation of normal saline until there was a fall in FEV1 of ≧20% of its value recorded after saline inhalation or until maximal concentration of either ATP or AMP was inhaled. The provocative dose causing a 20% decrease in FEV1 (PD20) was calculated by interpolation of the logarithmic dose response curve.
All data from the analyses described in Examples 2-4 were performed with a software package (GraphPad Prism Software, Inc., USA). The significance of differences among groups was assessed by Student's t-test, and analysis of categorical variables was examined by Chi-square test. Pearson's correlation coefficient and linear regression analysis were used to analyze the relationship between the percentage decreases in FEV1 and Borg score. The PD20 values for ATP and AMP were logarithmically transformed to normalize their distribution and presented as geometric means. All other numerical variables were expressed as the mean±SEM and significance was defined as p<0.05.

[4] = tested on: human subjects (perception of dyspnoea); assay: Borg score for dyspnoea before and after inhalation challenge; format: in vivo; set-up: key to ΔBorg (change in Borg score before and after challenge): Borg score after minus before challenge; 0–10 scale
Excerpt: as §4
The modified Borg scale used to quantitate dyspnoea in the clinical study described in Examples 2-4 was a category scale in which words describing degrees of breathlessness were anchored to numbers between 0 and 10. The subjects were asked to select a number whose corresponding words most appropriately described their perception of breathlessness. The change in dyspnoea was expressed as ΔBorg, which was the difference in Borg score before and after the challenge [Rutgers et al. (2000) Eur. Respir. J. 16:486-490; Burdon et al. (1982) Am. Rev. Respir. Dis. 126:825-828]. Terms and associated numbers used in assessing Borg score were as follows: 0, “nothing at all”; 0.5, “very, very slight”; 1, “very slight”; 2, “slight”; 3, “moderate”; 4, “somewhat severe”; 5, “severe”; 7, “very severe”; 9, “very, very severe (almost maximal)”; and 10, “maximal” [Burdon et al. (1982)].
as §5

[5] = tested on: human subjects (cough, throat irritation, sputum); assay: Symptoms other than dyspnoea recorded after inhalation challenge; format: in vivo; conditions: all subjects
Excerpt: as §4, §5

[6] = tested on: pulmonary RAR-containing afferent nerve fiber; assay: Vagal activation experiments in dogs: action potentials in RAR-containing fibers; format: in vivo; conditions: anesthetized dog, rapid bolus; ATP 6 μmol/kg, capsaicin 10 ug kg−1, analogs 0.75 umol kg−1
Experimental: (§6) The experiments described in Example 5 were performed essentially as described in Pelleg et al. [(1996) J. Physiol. 490(1):265-275] and U.S. Pat. No. 5,874,420, both of which are incorporated herein by reference in their entirety. In brief, they were performed on anesthetized (sodium pentobarbitone, 30 mg kg^−1 plus 3 mg kg^−1 h^−1, intravenous) dogs artificially ventilated with room air using a respirator. Arterial blood pH, PO2, PCO2, body temperature were maintained as described in U.S. Pat. No. 5,874,420. A peripheral vein was cannulated for the administration of physiological saline solution and maintenance doses of anesthetic. Catheters were introduced via the femoral vein and left atrial appendage and positioned in the right atrium and left atrium for the administration of test solutions. The chest was opened by a longitudinal sternotomy. The right cervical vagosympathetic trunk was exposed by a midcervical longitudinal section of the skin and careful dissection of neck muscles and connective tissues. The edges of the cut skin were elevated and secured to create a trough which was filled with warm (about 37° C.) mineral oil. A section of the vagosympathetic trunk was placed on a small plate of black Perspex™ and fine branches were separated from the main bundle by careful dissection using microsurgical tools and a dissecting microscope (Model F212, Jenopik Jena, GmbH, Germany).
Extracellular neural action potentials were recorded using a custom-made bipolar electrode that contained two platinum-iridium wires (1.25 cm×0.0125 cm) connected to a high-impedence first-stage differential amplifier (model AC8331, CW, Inc., Ardmore, Pa.) via a shielded cable. The output of the first-stage amplifier was fed into a second-stage differential amplifier (model BMA-831/C, CWE, Inc.). Isolated fibers were laid on the pair of platinum-iridium wires. Vagal C fibers with chemosensitive endings have a sparse irregular discharge which is not associated with cardiac or respiratory cycles. Confirmation of fiber type was obtained by: first monitoring the response to capsaicin (10 microg kg^−1, intra-right atrial bolus); second, monitoring the response to mechanical stimulation of the lungs using gentle probing with forceps as well as inflation of the lungs to 2-3 times the tidal volume; and third, determining the speed of conduction using a stimulating electrode positioned distal to the initial recording site. Nerve fibers with RAR on their pulmonary endings, spontaneously fire a brief (i.e., short lasting) volley of action potentials associated with peak tracheal pressure during each respiratory cycle.
[…] Volume controls consisted of either 5 ml+5 ml or 1 ml+3 ml physiological saline. All injections were performed in the same mode by the same person. To exclude involvement of baroreceptors in the recorded neural activity, the latter was monitored before and after a bolus of nitroglycerine (1 mg; intravenous).
The procedure described in Example 1 was used to measure action potentials in dog pulmonary fibers with RAR on their terminals following administration of various agents. RAR activation generated a brief volley of action potentials associated with each respiratory cycle that was seen before as well as after administration of ATP (FIG. 7). […] Thus ATP modified the activity of the RAR-containing fiber manifested in their transient loss of the rapid adaptability characteristic.

vagal C fiber = assay: Vagal activation experiments in dogs: action potentials in vagal C fibers; format: in vivo; conditions: anesthetized dog, rapid bolus; simultaneous recording with RAR-containing fiber
Experimental: as §6
Extracellular neural action potentials were recorded using a custom-made bipolar electrode that contained two platinum-iridium wires (1.25 cm×0.0125 cm) connected to a high-impedence first-stage differential amplifier (model AC8331, CW, Inc., Ardmore, Pa.) via a shielded cable. The output of the first-stage amplifier was fed into a second-stage differential amplifier (model BMA-831/C, CWE, Inc.). Isolated fibers were laid on the pair of platinum-iridium wires. Vagal C fibers with chemosensitive endings have a sparse irregular discharge which is not associated with cardiac or respiratory cycles. […]
ATP (3 umole kg^−1) and capsaicin (10 ug kg^−1) were administered as a rapid bolus into the right atrium (5 ml test solution+5 ml physiological saline flush). α,βmATP and β,γmATP were given as one low dose only (0.75 umol kg^−1) to avoid systemic side effects. […] To exclude involvement of baroreceptors in the recorded neural activity, the latter was monitored before and after a bolus of nitroglycerine (1 mg; intravenous). […]

O=C(O)c1cc(C(=O)O)c(C(=O)N(Cc2cccc(Oc3ccccc3)c2)[C@H]2CCCc3ccccc32)cc1C(=O)O [A-317491, 5-({(3-phenoxybenzyl)[(1S)-1,2,3,4-tetrahydro-1-napththalenyl]amino}carbonyl)-1,2,4-benzenetricarboxylic acid]
inhibition of the action of α,βmATP ([1]; antagonist 1 uM): no inhibitory effect
reduction of response to α,βmATP ([1]; antagonist 10 uM): 62±5%
inhibition of the action of α,βmATP ([2]; antagonist 1 uM): 59±12%
reduction of response to α,βmATP ([2]; antagonist 10 uM): 88±5%

Nc1ncnc2c1ncn2[C@@H]1O[C@H](COP(=O)(O)O)[C@@H](O)[C@H]1O [AMP, adenosine 5′-monophosphate]
patients with bronchoconstriction ([3]; 19 smoking subjects (seven healthy smokers, seven smokers at risk, five COPD)): 21%
PD20 geometric mean ([3]; COPD (n = 7)): 210.6 µmol/mL
patients who responded to challenge ([3]; COPD patients): 33%
PD20 geometric mean (range) ([3]; all subjects who had airway responsiveness): 82.9 (0.9-576.0) umol/ml
PD20 geometric mean ([3]; asthma (n = 10)): 113.5 µmol/mL
response to challenge ([3]; healthy non-smokers, no change in FEV1 or reduction of less than 20%): negative
subjects who responded to challenge ([3]; healthy smokers): 14%
PD20 geometric mean ([3]; healthy smokers (n = 7)): 74.6 µmol/mL
PD20 ([3]; COPD (n = 7)): 0.9 μmol/ml and >1152 μmol/ml (4×) and 72.0 μmol/ml and 168.4 μmol/ml
PD20 ([3]; asthma (n = 10)): 576.0 µmol/mL and 3.46 µmol/mL and 54.7 µmol/mL and 559.3 µmol/mL and 461.7 µmol/mL and 176.0 µmol/mL and >1152 µmol/mL and 15.8 µmol/mL and 556.4 µmol/mL and 72.0 µmol/mL
PD20 ([3]; healthy smokers (n = 7)): >1152 μmol/ml (6×) and 74.6 μmol/ml
PD20 ([3]; non-smokers (n = 10), provocative dose causing 20% decrease in FEV1): >1152 µmol/mL
PD20 ([3]; smokers at risk (n = 7)): >1152 μmol/ml (6×) and 576.0 μmol/ml
PD20 geometric mean ([3]; non-smokers (n = 10)): >1152 µmol/mL
subjects responsive to challenge ([3]; of the 40 subjects in the study): 32.5%
patients who responded to challenge ([3]; patients with asthma): 90%
ΔFEV1 (decrease in FEV1 as percentage of baseline FEV1) ([3]; patients with asthma): 22%
subjects who responded to challenge ([3]; smokers at risk): 14%
PD20 geometric mean ([3]; smokers at risk (n = 7)): 576.0 µmol/mL
ΔBorg (change in Borg score before and after challenge) ([4]; COPD): 0.6
Borg score after challenge (at PD20) ([4]; COPD patients): 0.8
Borg score after challenge (at PD20) ([4]; patients with asthma): 2.5
ΔBorg (change in Borg score before and after challenge) ([4]; patients with asthma): 2.3
subjects who coughed after challenge [5]: 48%
subjects who had sputum after challenge [5]: 10%
subjects who had throat irritation after challenge [5]: 53%

COc1cc(CNC(=O)CCCC/C=C/C(C)C)ccc1O [capsaicin]
effect on action potentials of RAR-containing fibers [6]: did not alter the firing pattern
effect on action potentials of C fibers (vagal C fiber): stimulated only the former

Nc1ncnc2c1ncn2[C@@H]1O[C@H](COP(=O)(O)OP(=O)(O)CP(=O)(O)O)[C@@H](O)[C@H]1O [β,γmATP, β,γ-methylene ATP]
effect on action potentials of RAR-containing fibers [6]: acted similarly to ATP
effect on action potentials of C fibers (vagal C fiber): acted similarly to ATP
